Assay results: article PMC10669220, “In Vitro α-Glucosidase and α-Amylase Inhibition, Cytotoxicity and Free Radical Scavenging Profiling of the 6-Halogeno and Mixed 6,8-Dihalogenated 2-Aryl-4-methyl-1,2-dihydroquinazoline 3-Oxides” (Antioxidants, 2023)
Where “and” joins values, the source holds several entries; their conditions need not be identical. Equal values may be shown once.

Tests used:
[1] = NO free radical scavenging assay (sodium nitroprusside/Griess); settings: mean ± SD; sodium nitroprusside, Griess reagent, 550 nm
Description: The assay was conducted following the method described in our previous study. A mixture of 10 mM sodium nitroprusside (20 µL), phosphate buffer (5 µL) and the test compound (5 µL) were incubated at 25 °C in a 96-well plate for 2.5 h. After incubation, 20 µL of Griess reagent (1.00 g of sulfanilic acid + 0.10 g naphthylethylene diamine dihydrochloride) was added to the previous mixture and allowed to stand for 30 min. […] Each experiment was performed in triplicate, and the average was taken. The average obtained from the absorbance readings was used to calculate the IC50 values in GraphPad prism from nonlinear regression dose–response curves.

[2] = system: NO generated from nitric oxide synthase (NOS); experiment: Inhibitory activity against NO generated from NOS (EnzyChrom kit); format: biochemical; settings: mean ± SD, 1-50 µM
Description: A nitric oxide synthase (NOS) assay was performed following the procedure recommended by the manufacturer as outlined in the screening kit (Catalogue No. EINO-100; EnzyChrom). Various concentrations (1, 5, 10, 25 and 50 µM) of the compounds 3a, 3c, 3f, 3i, 3l, 3n and 3p and the reference standard, ascorbic acid, were prepared. The enzyme solution (12.5 U/mL NOS, 10 µL), assay buffer (25 µL) and test samples (5 µL) were incubated at room temperature for 15 min. After pre-incubation, 10 µL of reaction mix was added and incubated at 37 °C for 60 min. A 200 µL quantity of NO detection reagent was added, the detection reaction was run at 37 °C for 60 min, and absorbance was determined at a wavelength of 540 nm using an Elisa plate reader (Varioskan Flash, ThermoFisher Scientific, Vantaa, Finland). The average of three readings was used to calculate the NOS percentage inhibition using the following formula: % Inhibition=1−ΔOD Test Compd/ΔOD No Inhibitor ×100%
The IC50 values and standard deviation values were determined from nonlinear regression dose–response curve and compared with the results in GraphPad prism.

[3] = DPPH radical scavenging assay; settings: mean ± SD; 45 min in the dark; 512 nm
Description: The DPPH radical scavenging assay was conducted following the procedure described in our previous study. The test compounds and ascorbic acid at various concentrations (ranging from 0 µM to 50 µM) in DMSO were mixed with a solution of DPPH (0.20 mM) in methanol and incubated in the dark for 45 min. Five absorbance readings were recorded at 512 nm using an Elisa plate reader (Varioskan Flash, ThermoFisher Scientific, Vantaa, Finland). The experiment was carried out in triplicate, and averaged values from the absorbance readings were used to determine the IC50 and standard deviation values in GraphPad prism from nonlinear regression dose–response curves.

[4] = MTT cytotoxicity assay, HEK293-T; settings: human, HEK293-T cells
[5] = system: human embryonic kidney (HEK293-T) cell line; experiment: MTT cytotoxicity assay, HEK293-T; settings: Homo sapiens, HEK-293T, read-out: IC50 Hek293-T
[6] = target: T1, human α-amylase (Homo sapiens, UniProt P04746); experiment: α-amylase inhibitor screening kit assay; format: biochemical; settings: mean ± SD, triplicate; tested at 1, 5, 10, 25, 50 µM
T1 construct: purchased Abcam ab283391
T1 sequence (P04746 16-511): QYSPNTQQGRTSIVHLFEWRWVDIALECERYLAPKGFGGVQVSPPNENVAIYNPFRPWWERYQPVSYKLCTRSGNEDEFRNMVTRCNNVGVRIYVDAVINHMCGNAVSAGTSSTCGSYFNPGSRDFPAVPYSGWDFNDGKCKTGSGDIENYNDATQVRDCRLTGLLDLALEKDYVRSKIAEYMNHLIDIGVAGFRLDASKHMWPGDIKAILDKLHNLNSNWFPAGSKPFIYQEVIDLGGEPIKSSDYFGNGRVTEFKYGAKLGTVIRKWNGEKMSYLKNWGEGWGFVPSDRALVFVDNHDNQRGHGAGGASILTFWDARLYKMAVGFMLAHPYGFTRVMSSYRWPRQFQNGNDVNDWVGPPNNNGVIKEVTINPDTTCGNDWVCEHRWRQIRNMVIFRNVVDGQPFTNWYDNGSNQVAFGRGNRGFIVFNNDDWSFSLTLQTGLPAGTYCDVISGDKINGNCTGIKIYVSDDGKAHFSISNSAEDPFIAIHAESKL
Description: The α-amylase assay was performed in triplicate, using a 96-well plate following the procedure recommended by the manufacturer as outlined in the α-amylase inhibitor Screening Kit (Catalogue No. ab283391; Abcam). […] The average values obtained from the absorbance readings were used to determine the IC50 and standard deviation values in GraphPad prism from nonlinear regression dose–response curves.

[7] = system: breast cancer (MCF-7) cell line; experiment: MTT cytotoxicity assay, MCF-7; settings: for Cell viability percentage, MCF-7: Table S2; for IC50: Homo sapiens, MCF7, read-out: IC50 MCF-7
Description: (§1) Cells were cultured in sterile Dulbecco’s Minimal Essential Medium (DMEM, Gibco) supplemented with 10% fetal bovine serum (FBS) and 1% penicillin-streptomycin solution. […] Cell counting was carried out using a handheld automated cell counter (Scapter 3.0™, Merck, Burlington, MA, USA) and seeded (1 × 10^4 cells/well) into a 96-well plate. After 24 h, the cells were treated with different concentrations (1, 5, 10, 25 and 50 µM) of the test compounds and reference standards prepared in DMEM. The MTT solution (20 μL) prepared in PBS (5 mg/mL) was added to all the wells, and the plates were incubated for 4 h, followed by 1 h incubation with 100 µL of dimethyl sulfoxide (DMSO) to dissolve the formazan crystals. Untreated cells and 5% DMSO were included in the experiment as negative controls. All experiments were performed in triplicate. The plates were read at 570 nm at a reference wavelength of 630 nm using an ELISA plate reader (Varioskan Flash, ThermoFisher Scientific, Vantaa, Finland). The percentage of cell viability was calculated using the following formula, Cell viability %=At/Ab×100 where At represents the absorbance value of test compound and Ab the absorbance value of the blank. […] The data were expressed as means ± SD.

[8] = target: superoxide dismutase (SOD); experiment: Superoxide dismutase (SOD) inhibitory assay (SOD assay kit-WST); format: biochemical; settings: duplicate; 1-50 µM; 25 °C, 30 min; read-out: IC50 SOD inhibition
Description: The antioxidant activity of the compounds 3a, 3c, 3f, 3i, 3l, 3n and 3p against superoxide radicals was assessed via enzymatic assay in vitro using the SOD assay kit-WST according to the manufacturer’s instructions (Sigma-Aldrich®). The reaction mixtures in the SOD kit were combined with 20 μL of working solution of the samples in a 96-well plate. Plates were gently shaken and then incubated at 25 °C for 30 min. The reference positive control, diphenyleneiodonium (DPI), and the compounds were tested at 01, 5, 10, 25 and 50 µM in duplicates. The inhibition activity of SOD on the reaction of […] generated the superoxide with a tetrazolium salt, which was then determined by measuring the absorbance of the mixtures at a wavelength of 450 nm using an Elisa plate reader (Varioskan Flash, ThermoFisher Scientific, Vantaa, Finland). The SOD activity values obtained used to calculate the percentage of inhibition. % SOD activity=ODx− ODy/ODx ×100% where ODx is the absorbance of the blank (untreated SOD) and ODy is the absorbance of the sample (treated SOD). All tests were performed in duplicate.

[9] = system: lung cancer (A549) cell line; experiment: MTT cytotoxicity assay, A549; settings: for Cell viability percentage, A549: Table S3; for IC50: Homo sapiens, A549, read-out: IC50 A549
Description: as §1

[10] = target: T2, α-Glucosidase type 1 from baker's yeast (Saccharomyces cerevisiae, UniProt P53341); experiment: biochemical; settings: IC50 α-Glucosidase, mean ± SD, triplicate; tested at 1, 5, 10, 25, 50 µM
T2 construct: purchased Sigma Aldrich (Pty) Ltd. G5003
Description: The assay was conducted in triplicate following a method described in our previous study. […] After pre-incubation, 17 µL of 2 mM PNP-G was added. The absorbances were recorded in a 96-well microplate at 400 nm using an Elisa plate reader (Varioskan Flash, ThermoFischer Scientific, Vantaa, Finland). The average values obtained from the readings were used to determine the IC50 and standard deviation values using a GraphPad Prism software (Version 8, GraphPad Software Inc., San Diego, CA, USA). The average values obtained from the absorbance readings were used to determine the IC50 and standard deviation values in GraphPad prism from nonlinear regression dose–response curves.

T2 sequence (P53341 whole entry): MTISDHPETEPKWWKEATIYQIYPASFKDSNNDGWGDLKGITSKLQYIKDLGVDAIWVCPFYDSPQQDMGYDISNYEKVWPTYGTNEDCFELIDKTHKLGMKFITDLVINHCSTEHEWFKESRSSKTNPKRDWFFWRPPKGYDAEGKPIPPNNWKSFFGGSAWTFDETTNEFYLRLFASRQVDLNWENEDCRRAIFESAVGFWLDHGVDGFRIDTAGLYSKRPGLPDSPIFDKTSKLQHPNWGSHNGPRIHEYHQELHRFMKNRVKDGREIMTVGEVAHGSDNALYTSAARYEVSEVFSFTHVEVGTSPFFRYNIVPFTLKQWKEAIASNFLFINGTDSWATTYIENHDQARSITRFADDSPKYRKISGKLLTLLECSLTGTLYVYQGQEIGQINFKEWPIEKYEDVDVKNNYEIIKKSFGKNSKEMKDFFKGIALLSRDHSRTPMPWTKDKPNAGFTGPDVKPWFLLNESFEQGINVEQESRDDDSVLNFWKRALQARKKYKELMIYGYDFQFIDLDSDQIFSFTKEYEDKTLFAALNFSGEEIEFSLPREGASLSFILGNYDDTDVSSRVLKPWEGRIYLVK

Structure (SMILES)	IC50 [1]	IC50 [2]	IC50 [3]	viability at 1 µM [4]	viability at 5 µM [4]	viability at 10 µM [4]	viability at 25 µM [4]	viability at 50 µM [4]	IC50 [5]	IC50 [6]	melting point	Cell viability percentage, MCF-7 ([7]; Conc. 1 (µM per method))	Cell viability percentage, MCF-7 ([7]; Conc. 5 (µM per method))	Cell viability percentage, MCF-7 ([7]; Conc. 10 (µM per method))	Cell viability percentage, MCF-7 ([7]; Conc. 25 (µM per method))	Cell viability percentage, MCF-7 ([7]; Conc. 50 (µM per method))	IC50 [7]	Cell viability percentage, A549 ([9]; Conc. 1 (µM per method))	IC50 [9]	IC50 [10]	further results
O=C1O[C@H]([C@@H](O)CO)C(O)=C1O [Ascorbic acid, ascorbic acid, reference compound]	5.39 ± 0.005 µM	0.999 ± 0.006 µM	5.02 ± 0.009 µM	–	–	–	–	–	–	–	–	–	–	–	–	–	–	–	–	–	–
CC1=[N+]([O-])C(c2ccccc2)Nc2ccc(Br)cc21 (centres unmarked) [Compound 3a]	27.34 ± 0.04 µM	5.24 ± 0.002 µM	4.74 ± 0.027 µM	69.4%	63.4%	57.8%	55.1%	19%	40.18 ± 0.02 µM	5.33 ± 0.01 µM	158 to 160 °C	26,2641%	26,1144%	23,187%	22,3387%	19,6607%	10.83 ± 0.09 µM	66,8354%	15.84 ± 0.07 µM	1.08 ± 0.02 µM	IC50 [8]: 15 ± 10 µM; Cell viability percentage, A549 ([9]; Conc. 5 (µM per method)): 57,3068%; Cell viability percentage, A549 ([9]; Conc. 10 (µM per method)): 54,0443%; Cell viability percentage, A549 ([9]; Conc. 25 (µM per method)): 41,1182%; Cell viability percentage, A549 ([9]; Conc. 50 (µM per method)): 30,5771%
CC1=[N+]([O-])C(c2ccc(Cl)cc2)Nc2ccc(Br)cc21 (centres unmarked) [Compound 3c]	7.45 ± 0.002 µM	1.1 ± 0.003 µM	33.52 ± 0.025 µM	64.7%	62.9%	50.3%	34.2%	23.5%	27.54 ± 0.05 µM	30.48 ± 0.02 µM	171 to 173 °C	46,7898%	44,7938%	42,5981%	41,6999%	37,2256%	25.48 ± 0.08 µM	73,4391%	15.26 ± 0.09 µM	1.04 µM and 0.92 µM	IC50 [8]: 4.6 ± 0.14 µM; Cell viability percentage, A549 ([9]; Conc. 5 (µM per method)): 66,5879%; Cell viability percentage, A549 ([9]; Conc. 10 (µM per method)): 54,3481%; Cell viability percentage, A549 ([9]; Conc. 25 (µM per method)): 41,782%; Cell viability percentage, A549 ([9]; Conc. 50 (µM per method)): 29,5534%
CC1=[N+]([O-])C(c2ccc(F)cc2)Nc2ccc(I)cc21 (centres unmarked) [Compound 3f]	6.74 ± 0.002 µM	4.7 ± 0.004 µM	23.66 ± 0.009 µM	72%	55.2%	47.8%	36.7%	14.7%	22.32 ± 0.08 µM	0.64 ± 0.01 µM	180 to 182 °C	69,8879%	62,4071%	44,9558%	32,649%	23,6814%	19.01 ± 0.04 µM	82,3715%	13.71 ± 0.11 µM	9.27 ± 0.02 µM	IC50 [8]: 11.59 ± 0.08 µM; Cell viability percentage, A549 ([9]; Conc. 5 (µM per method)): 71,9204%; Cell viability percentage, A549 ([9]; Conc. 10 (µM per method)): 61,143%; Cell viability percentage, A549 ([9]; Conc. 25 (µM per method)): 44,212%; Cell viability percentage, A549 ([9]; Conc. 50 (µM per method)): 32,7708%
CC1=[N+]([O-])C(c2ccccc2)Nc2c(Br)cc(I)cc21 (centres unmarked) [Compound 3m]	55.39 ± 0.002 µM	–	8.88 ± 0.011 µM	81.2%	75%	51.1%	42%	19.1%	27.97 ± 0.08 µM	16.73 ± 0.01 µM	180 to 181 °C	25,998%	24,1517%	20,9415%	20,6088%	17,6314%	15.34 ± 0.07 µM	78,1978%	16.34 ± 0.06 µM	9.14 ± 0.03 µM	Cell viability percentage, A549 ([9]; Conc. 5 (µM per method)): 68,6691%; Cell viability percentage, A549 ([9]; Conc. 10 (µM per method)): 61,413%; Cell viability percentage, A549 ([9]; Conc. 25 (µM per method)): 42,2995%; Cell viability percentage, A549 ([9]; Conc. 50 (µM per method)): 30,0709%
CC1=[N+]([O-])C(c2ccc(Cl)cc2)Nc2c(Br)cc(I)cc21 (centres unmarked) [Compound 3o]	23.25 ± 0.002 µM	–	88.45 ± 0.009 µM	45.2%	44.6%	44.4%	44.2%	37.7%	58.98 ± 0.17 µM	49.18 ± 0.01 µM	140 to 142 °C	46,2908%	41,6001%	39,6041%	38,7891%	23,0428%	16.5 ± 0.01 µM	–	20 ± 0.05 µM	7.07 ± 0.04 µM	–
